According to patent US12129252B1, “Pyrrolo[2,3-c][2,6]naphthyridine-8-carboxylic acids as CK2 inhibitors” (KING FAISAL UNIVERSITY, priority 2024, dated 2024):

Assays:
PC3 (prostate) = test: In vitro cytotoxic activity assay (MTT), PC3; assay type: cell-based; conditions: Homo sapiens; cells exposed for 96 hours; 50 % inhibition of cell proliferation; read-out: Cytotoxicity activity IC50, PC3 (prostate)
Method: (§1) Compounds 1-15 were screened for their in vitro cytotoxic activity utilizing a 3-(4,5-dimethyl-thiazol-2-yl)-2,5-diphenyltetrazolium bromide (MTT) assay against selected cancer human cell lines consisting of PC3 (prostate), HCT116 (colon), A375 (melanoma), H1299 (lung), MIAPaCa-2 (pancreas), HL60 (leukemia), MCF7 (breast), MDA-MB-231 (breast) (T. Mosmann, J. Immunol. Meth., 1983, 65, 55-63). The cells were cultured at 37° C. in RMPI1640 medium supplemented with 10% fetal bovine serum, 50 IU/mL penicillin, and 50 μg/mL streptomycin in a 5% CO2 incubator. All cells were sub-cultured 3 times/week by trypsinisation. Viable cells were seeded and allowed to adhere for 12 hours before a test drug was added in 96-well plates at an initial density of 1.0×10^5 cells/mL. Tumor cell lines were separately exposed to various concentrations of the tested compounds followed by incubation at a temperature of 37° C. during 96 hours inside a medium of fresh RMPI 1640. Cells were subsequently incubated at 37° C. using MTT at 0.5 mg/mL during 4 hours. After removal of supernatant, formazan crystals were dissolved in isopropanol and the optical density was measured at 570 nm. CX-4945 was used as a positive control.

HCT116 (colon) = test: In vitro cytotoxic activity assay (MTT), HCT116; assay type: cell-based; conditions: Homo sapiens, HCT-116; cells exposed for 96 hours; 50 % inhibition of cell proliferation; read-out: Cytotoxicity activity IC50, HCT116 (colon)
Method: as §1

A375 (melanoma) = test: In vitro cytotoxic activity assay (MTT), A375; assay type: cell-based; conditions: Homo sapiens, A-375; cells exposed for 96 hours; 50 % inhibition of cell proliferation; read-out: Cytotoxicity activity IC50, A375 (melanoma)
Method: as §1

H1299 (lung) = test: In vitro cytotoxic activity assay (MTT), H1299; assay type: cell-based; conditions: Homo sapiens, NCI-H1299; cells exposed for 96 hours; 50 % inhibition of cell proliferation; read-out: Cytotoxicity activity IC50, H1299 (lung)
Method: as §1

MIAPaCa-2 (pancreas) = test: In vitro cytotoxic activity assay (MTT), MIAPaCa-2; assay type: cell-based; conditions: Homo sapiens, MIA PaCa-2; cells exposed for 96 hours; 50 % inhibition of cell proliferation; read-out: Cytotoxicity activity IC50, MIAPaCa-2 (pancreas)
Method: as §1

HL60 (leukemia) = test: In vitro cytotoxic activity assay (MTT), HL60; assay type: cell-based; conditions: Homo sapiens, HL-60; cells exposed for 96 hours; 50 % inhibition of cell proliferation; read-out: Cytotoxicity activity IC50, HL60 (leukemia)
Method: as §1

MCF7 (breast) = test: In vitro cytotoxic activity assay (MTT), MCF7; assay type: cell-based; conditions: Homo sapiens, cells exposed for 96 hours, 50 % inhibition of cell proliferation, read-out: Cytotoxicity activity IC50, MCF7 (breast)
Method: as §1

MDA-MB-231 (breast) = test: In vitro cytotoxic activity assay (MTT), MDA-MB-231; assay type: cell-based; conditions: Homo sapiens, cells exposed for 96 hours, 50 % inhibition of cell proliferation, read-out: Cytotoxicity activity IC50, MDA-MB-231 (breast)
Method: as §1

[1] = molecular target: T1, recombinant human CK2 (RRββ-holoenzyme) (Homo sapiens, UniProt P68400); test: CK2 Kinase Assay; assay type: biochemical; conditions: final ATP concentration 15 μM; 10 min at 30° C.; read-out: protein kinase CK2 inhibition IC50
T1 construct: purchased Millipore
T1 sequence (P68400 whole entry): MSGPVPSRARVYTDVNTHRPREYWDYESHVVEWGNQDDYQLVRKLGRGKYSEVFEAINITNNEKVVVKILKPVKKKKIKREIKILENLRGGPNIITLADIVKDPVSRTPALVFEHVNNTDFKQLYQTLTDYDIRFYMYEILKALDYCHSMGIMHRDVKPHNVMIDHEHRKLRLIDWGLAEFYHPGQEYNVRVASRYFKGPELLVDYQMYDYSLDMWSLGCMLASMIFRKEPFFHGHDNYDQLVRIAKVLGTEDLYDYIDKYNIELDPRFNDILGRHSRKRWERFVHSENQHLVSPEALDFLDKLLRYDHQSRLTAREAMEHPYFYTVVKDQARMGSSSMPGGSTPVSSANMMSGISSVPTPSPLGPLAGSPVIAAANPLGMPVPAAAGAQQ
T1 sequence (P67870 whole entry partner): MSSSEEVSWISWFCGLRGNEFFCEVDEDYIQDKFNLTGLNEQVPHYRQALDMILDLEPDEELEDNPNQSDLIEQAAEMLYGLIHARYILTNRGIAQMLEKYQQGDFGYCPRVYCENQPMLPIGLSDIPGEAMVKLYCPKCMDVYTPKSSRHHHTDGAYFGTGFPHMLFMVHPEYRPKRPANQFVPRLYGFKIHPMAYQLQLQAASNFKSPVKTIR
Method: CK2 Kinase Assay was conducted using the protocol as described in Pierre F. et al; J. Med. Chem. 2011, 54, 635-654. The tested compounds in aqueous solution were added at a volume of 10 μL to a reaction mixture comprising 10 μL of assay dilution buffer (ADB; 20 mM MOPS, pH 7.2, 25 mM β-glycerol phosphate, 5 mM EGTA, 1 mM sodium orthovanadate, and 1 mM dithiothreitol), 10 μL of substrate peptide (RRRDDDSDDD, dissolved in ADB at a concentration of 1 mM), 10 μL of recombinant human CK2 (RRββ-holoenzyme, 25 ng dissolved in ADB; Millipore). Reactions were initiated by the addition of 10 μL of ATP solution (90% 75 mMMgCl2, 75 μM ATP (final ATP concentration: 15 μM) dissolved in ADB; 10% [γ-33P] ATP (stock 1 mCi/100 μL; 3000 Ci/mmol (Perkin-Elmer) and maintained for 10 min at 30° C. The reactions were quenched with 100 μL of 0.75% phosphoric acid and then transferred to and filtered through a phosphor cellulose filter plate (Millipore). After washing each well five times with 0.75% phosphoric acid, the plate was dried under vacuum for 5 min and, following the addition of 15 μL of scintillation fluid to each well, the residual radioactivity was measured using a Wallac […] counter. The IC50 values were derived from eight concentrations of test inhibitors.

`O=C(O)c1cc2c(nc(Nc3cccc(Cl)c3)c3ccncc32)[nH]1` [Compound 1, 5-((3-chlorophenyl)amino)-7H-pyrrolo[2,3-c][2,6]naphthyridine-8-carboxylic Acid] was tested, and the IC50 (PC3 (prostate)) was 2100 nM, the IC50 (HCT116 (colon)) was 1000 nM and the IC50 (A375 (melanoma)) was 2900 nM. The IC50 (H1299 (lung)) was 1300 nM, the IC50 (MIAPaCa-2 (pancreas)) was 900 nM and the IC50 (HL60 (leukemia)) was 2200 nM. For the same molecule, the IC50 (MCF7 (breast)) was 3500 nM, the IC50 (MDA-MB-231 (breast)) was 3800 nM and the IC50 [1] was 8 nM.
